Patent US9295717B2, “Vaccine composition comprising 5′-cap modified RNA” (BIONTECH AG, priority 2009, dated 2016)
Values joined by “and” are separate entries in the source; they are usually repeats but may differ in a detail not shown here. Identical values can stand only once. “Also recorded” adds a separate entry of the source.

Tests used:
[1] = test system: immature dendritic cells (iDCs); test: Luciferase expression after electroporation of 5′-capped luciferase RNA into immature dendritic cells; type: cell-based, human; conditions: for transl. efficiency: maximal slope of curve; for transl. efficiency / relative total protein expression: m7GpppG RNA set to 1, mean ± SD; for relative total protein expression: luciferase, 72 h time course
[2] = test system: mature dendritic cells (mDCs); test: Luciferase expression after electroporation of 5′-capped luciferase RNA into mature dendritic cells; type: cell-based, human; conditions: for protein expression (in words) / transl. efficiency: luciferase RNA; for transl. efficiency: maximal slope of curve; for transl. efficiency / relative total protein expression: m7GpppG RNA set to 1, mean ± SD; for relative total protein expression: luciferase, 72 h time course; for time of max.: time point of maximal luciferase expression, mean ± SD
immature dendritic cells [3] = test: d2eGFP expression (flow cytometry) after introduction of capped RNA into immature dendritic cells; type: cell-based, human; conditions: iDCs
[4] = test system: immature dendritic cells (iDCs); test: RNA stability (half-life) by real time RT-PCR of d2eGFP RNA in immature dendritic cells; type: cell-based, human
Dcp2 = Dcp2 (Homo sapiens, UniProt Q8IU60); conditions: background, earlier work; cited from earlier work
immature dendritic cells [5] = test: Luciferase activity with increasing RNA amounts (40 vs 20 pmol) in immature dendritic cells; type: cell-based; conditions: iDCs
Procedure: (§1) FIG. 3. Competition for translation between ARCA- and beta-S-ARCA(D1)-capped RNAs. Immature dendritic cells (iDCs) were electroporated with (A) increasing amounts of luciferase-encoding RNAs or (B) the indicated amounts of luciferase- and d2eGFP-encoding mRNAs, which were co-transcriptionally capped either with ARCA or beta-S-ARCA(D1) as indicated. The luciferase activity was measured after 2, 4, 8, 24, 48, and 72 hours. Shown is (A) the ratio between the luciferase activities obtained after electroporation with 40 and 20 pmol luciferase-encoding RNAs (±SD of two independent experiments), and (B) the relative luciferase activity compared to cells electroporated with only luciferase-encoding RNA without RNA (set to 1 for both ARCA- and beta-S-ARCA(D1)-capped RNA).
The results described so far indicate that the translational efficiency of an mRNA is influenced in dendritic cells by the type of the cap structure at its 5′ end. This is most likely due to differences in the efficiency by which the translational machinery is recruited to the different 5′ cap-structures. To corroborate this, we next analyzed (i) the effect of the RNA dose that is used for electroporation into immature dendritic cells, and (ii) the impact of a second RNA co-electroporated into immature dendritic cells on the protein expression. By increasing the amount of the electroporated mRNA, it is expected that at some point one or more translation factor(s) will become rate limiting in the cell, which will then restrict the amount of protein that can be synthesized from the exogenous RNA. Similarly, a second RNA will compete for the translation machinery, again influencing the translation efficiency.
Increasing amounts (20 pmol and 40 pmol) of luciferase-encoding RNAs co-transcriptionally capped with either ARCA or beta-S-ARCA(D1) were electroporated into immature dendritic cells, and the luciferase activity was measured after 2, 4, 8, 24, 48, and 72 hours. […] At this time-point, the level of luciferase protein was only about 1.6-fold as high as when half the amount of RNA was used. This ratio decreased even further 48 and 72 hours after electroporation (1.4- and 1.2-fold, respectively).

[6] = test system: inguinal lymph nodes of mice; test: In vivo luciferase imaging after intranodal injection of luciferase RNA
Procedure: FIG. 5. Effect of the 5′-cap structure on protein expression in vivo. Mice (n=9) have been injected intranodally with the same amount of luciferase encoding RNA with ARCA or beta-S-ARCA(D1) at the 5′-end (as indicated). The luciferase activity (given in RLU) has been measured after 2, 4, 8, 24, 48, and 72 hours. (A) Images of whole animals at the indicated time points of a representative mouse, which has been injected with ARCA or beta-S-ARCA(D1) RNA are shown. (B) Mean±standard error of the mean as measured in the time course. The significance has been determined using statistical analyses (*: P<0.005 and **: P<0.02).
RNA which is administered in this way is primarily taken up by immature dendritic cells. Thus, we have investigated whether stronger protein expression is also observed in lymph nodes for beta-S-ARCA(D1) RNA compared to RNAs with other cap structures (analyzed exemplarily for ARCA which we have applied in the earlier studies). […] After uptake of the RNA by cells of the lymph nodes and translation of the encoded luciferase, protein expression was quantified by measuring luciferase activity using in vivo imaging. […] 25 min after luciferin injection, photons emitted were quantified for an integration time of 1 min. […] To quantify the bioluminescence, regions of interest (ROI) were drawn and total flux (photons/sec, p/s) in ROI was measured. […]

CD8^+-T-cells = test: De novo T-cell priming after intranodal RNA immunization (tetramer staining); type: in vivo; conditions: mice; intranodal immunization day 0 and day 3; day 8
Procedure: FIG. 6. Effect of the 5′-cap structure on de novo priming of T-cells after intranodal immunization with RNA. Mice (n=5) have been immunized by intranodal injection twice […] (day 0 and day 3) with the same amount of RNA encoding a specific peptide antigen which either carries ARCA or beta-S-ARCA(D1) at the 5′-end. The frequency of tetramer positive CD8^+-cells was determined on day 8 using tetramer analysis. (A) Representative dot plots of cells from the peripheral blood and the spleen of mice which have been immunized with ARCA or beta-S-ARCA(D1) RNA (as indicated). (B) Average number of tetramer positive CD8^+-cells±standard error of the mean (in %) as measured on day 8. The significance was determined using statistical analyses (*: P<0.075).
Mice were immunized by intranodal injection of naked RNA twice […] (at day 0 and at day 3) which encodes a specific antigen with the above modifications. On day 8 the frequency of antigen-specific T-cells in peripheral blood and in the spleen was determined using tetramer staining. As shown in FIG. 6 about 5% of the CD8^+-T-cells in peripheral blood and about 6% of the CD8^+-T-cells in the spleen were tetramer positive after duplicate immunization with ARCA RNA. Using beta-S-ARCA(D1) RNA more than 12% and 13% tetramer positive CD8^+-T-cells in peripheral blood and in the spleen, respectively, were measured.

mature dendritic cells = test: d2eGFP expression (flow cytometry) after introduction of capped RNA into mature dendritic cells; type: cell-based, human; conditions: mDCs
HC11 cells = conditions: background, earlier work; cited from earlier work
immature dendritic cells [7] = test: Competition for translation: co-electroporation of d2eGFP RNA with luciferase RNA in immature dendritic cells; type: cell-based; conditions: iDCs; same amount of d2eGFP RNA; after 24, 48, and 72 hours vs luciferase RNA only
Procedure: as §1
The results described so far indicate that the translational efficiency of an mRNA is influenced in dendritic cells by the type of the cap structure at its 5′ end. This is most likely due to differences in the efficiency by which the translational machinery is recruited to the different 5′ cap-structures. To corroborate this, we next analyzed (i) the effect of the RNA dose that is used for electroporation into immature dendritic cells, and (ii) the impact of a second RNA co-electroporated into immature dendritic cells on the protein expression. […]

[8] = time point of maximal luciferase expression (functional RNA stability), mean ± SD

ApppG
total protein expression (in words) ([1]; luciferase RNA): do not result in any significant expression
transl. efficiency ([1]; luciferase RNA): 0.01 ± 0.00
relative total protein expression [1]: 0.022 ± 0.001
protein expression (in words) [2]: do not result in protein expression
transl. efficiency [2]: 0.01 ± 0.00
relative total protein expression [2]: 0.008 ± 0.000

GpppG
total protein expression (in words) ([1]; luciferase RNA): do not result in any significant expression
transl. efficiency ([1]; luciferase RNA): 0.18 ± 0.01
relative total protein expression [1]: 0.221 ± 0.001
time of max. [1, 8]: 11.5 ± 0.0 h
protein expression (in words) [2]: do not result in protein expression
transl. efficiency [2]: 0.31 ± 0.02
relative total protein expression [2]: 0.593 ± 0.005
time of max. [2]: 27.5 ± 0.5 h

m2^(7,2′-O)GppspG(D1) [beta-S-ARCA(D1)]
total protein expression (in words) (immature dendritic cells [3]): highest total protein expression
RNA stability / degradation (in words) [4]: most stable RNA
Dcp2 cleavage compared to RNA with unmodified ARCA 5′-cap (Dcp2): 71%
signal with 40 pmol relative to 20 pmol RNA (immature dendritic cells [5]; each time-point (2-72 hours)): about twice as high
protein expression compared to RNA with ARCA (in words) ([6]; 2, 4, 8, 24, 48, and 72 hours after intranodal application): higher at each time point
expression throughout the entire time course (integral of the curve), increase vs ARCA RNA ([6]; intranodal injection, luciferase, 2-72 hours): about 8 fold
expression increase (factor) compared to RNA with ARCA or post-transcriptionally modified RNA ([1]; luciferase RNA): around 3
total protein expression (in words) ([1]; luciferase RNA): highest total protein expression
total protein expression increase compared to RNA synthesized in presence of m^7GpppG ([1]; luciferase RNA): more than 13 fold
total protein expression increase compared to beta-S-ARCA(D2) RNA ([1]; luciferase RNA): about 2 fold
translation efficiency increase in comparison to RNA with m^7GpppG ([1]; luciferase RNA): about 3.4 fold
transl. efficiency ([1]; luciferase RNA): 3.36 ± 0.09
relative total protein expression [1]: 13.094 ± 0.307
tetramer positive CD8^+-T-cells in peripheral blood (CD8^+-T-cells): more than 12%
tetramer positive CD8^+-T-cells in the spleen (CD8^+-T-cells): > 13%
transl. efficiency [2]: 3.05 ± 0.14
relative total protein expression [2]: 3.884 ± 0.032
time of max. [2]: 20.1 ± 0.1 h

m2^(7,2′-O)GppspG(D2) [beta-S-ARCA(D2)]
total protein expression (in words) (mature dendritic cells): highest total protein expression
Dcp2 cleavage compared to RNA with unmodified ARCA 5′-cap (Dcp2): 6%
total protein expression (in words) ([1]; luciferase RNA): second best total expression
translation efficiency increase in comparison to RNA with m^7GpppG ([1]; luciferase RNA): about 3.5 fold
transl. efficiency ([1]; luciferase RNA): 3.53 ± 0.17
relative total protein expression [1]: 6.570 ± 0.075
time of max. [1, 8]: 12.8 ± 0.0 h
translation / total expression in HC11 cells (in words) (HC11 cells): more efficiently translated in HC11 cells; also recorded: strongest total expression
protein expression (in words) [2]: highest protein expression
transl. efficiency [2]: 3.30 ± 0.03
relative total protein expression [2]: 4.042 ± 0.053
time of max. [2]: 19.4 ± 0.1 h

m2^(7,3′-O)GpppG [ARCA]
level of luciferase protein with 40 pmol relative to 20 pmol RNA (immature dendritic cells [5]; 24 hours after electroporation): about 1.6 fold
level of luciferase protein with 40 pmol relative to 20 pmol RNA (immature dendritic cells [5]; 48 hours after electroporation): 1.4 fold
level of luciferase protein with 40 pmol relative to 20 pmol RNA (immature dendritic cells [5]; 72 hours after electroporation): 1.2 fold
translation efficiency increase in comparison to RNA with m^7GpppG ([1]; luciferase RNA): about 2.5 fold
transl. efficiency ([1]; luciferase RNA): 2.52 ± 0.19
relative total protein expression [1]: 4.777 ± 0.042
time of max. [1, 8]: 12 h and 12.6 ± 0.1 h
effect of co-electroporated d2eGFP RNA on expression of luciferase RNA (immature dendritic cells [7]): decreased the expression
tetramer positive CD8^+-T-cells in peripheral blood (CD8^+-T-cells): about 5%
tetramer positive CD8^+-T-cells in the spleen (CD8^+-T-cells): about 6%
transl. efficiency [2]: 2.16 ± 0.00
relative total protein expression [2]: 2.526 ± 0.015
time of max. [2]: 17.5 ± 0.3 h

m^7GpppG [m7GpppG]
transl. efficiency ([1]; luciferase RNA): 1.00 ± 0.04
relative total protein expression [1]: 1.000 ± 0.007
time of max. [1, 8]: 8.1 ± 1.1 h
time of max. (hours) ([1]; time point of maximal luciferase expression (functional RNA stability), mean ± SD, listed as m^7GpppG): around 8 hours
transl. efficiency [2]: 1.00 ± 0.05
relative total protein expression [2]: 1.000 ± 0.003
time of max. [2]: 16.0 ± 0.3 h

m^7Gppppm^7G [m7Gppppm7G]
RNA stability / degradation (in words) [4]: most unstable RNA
total protein expression (in words) ([1]; luciferase RNA): even lower than that of RNA which has been transcribed in presence of m^7GpppG
transl. efficiency ([1]; luciferase RNA): 0.20 ± 0.10
relative total protein expression [1]: 0.404 ± 0.004
time of max. [1, 8]: 4.9 ± 0.1 h
protein expression (in words) [2]: poorly translated
transl. efficiency [2]: 0.56 ± 0.04
relative total protein expression [2]: 0.176 ± 0.001
time of max. [2]: 6.0 ± 0.3 h
